# Laboratory results: ChEMBL document CHEMBL3875185, “Structure-anticonvulsant activity studies in the group of (E)-N-cinnamoyl aminoalkanols derivatives monosubstituted in phenyl ring with 4-Cl, 4-CH3 or 2-CH3” (Bioorg Med Chem, 2017)
# Activity calls are given as the source filed them. The calls are words filed in the database; no cut-off is given here.
# Legend:
# Mus musculus [1] = assay: Anticonvulsant activity in maximal electroshock induced seizure mouse model assessed as suppression in hindlimb tonic extension at 300 mg/kg, ip measured at 0.5 hrs post dose; format: functional, organism-based
# Mus musculus [2] = assay: Neurotoxicity in mouse assessed as induction of motor impairment at 300 mg/kg, ip measured at 4 hrs post dose by rotarod method; format: toxicity, organism-based; details: in vivo
# Rattus norvegicus [3] = assay: Neurotoxicity in Sprague-Dawley rat assessed as behavioral change at 30 mg/kg, po measured at 1 hr post dose; format: toxicity, organism-based; details: in vivo
# Rattus norvegicus [4] = assay: Neurotoxicity in Sprague-Dawley rat assessed as behavioral change at 30 mg/kg, po measured at 0.5 hrs post dose; format: toxicity, organism-based; details: in vivo
# Mus musculus [5] = assay: Anticonvulsant activity in ip dosed pentylenetetrazole induced seizure mouse model assessed as no observable episode of clonic convulsion of at least 5 secs by measuring time to peak effect; format: functional
# Mus musculus [6] = assay: Anticonvulsant activity in ip dosed 6-Hz induced seizure mouse model assessed as restoration of normal activity within 10 secs from stimulation at 44 mA; format: functional
# [7] = Protection index, ratio of TD50 for neurotoxicity in po dosed mouse to ED50 for po dosed maximal electroshock induced seizure mouse model; format: toxicity, organism-based; details: in vivo, read-out: Ratio TD50/ED50
# Rattus norvegicus [8] = assay: Anticonvulsant activity in po dosed maximal electroshock induced seizure Sprague-Dawley rat model assessed as suppression in hindlimb tonic extension by measuring time to peak effect; format: functional
# [9] = target: D(1A) dopamine receptor (Homo sapiens) (UniProt P21728); assay: Displacement of [3H]SCH 23390 from human recombinant dopamine D1 receptor expressed in CHO cells at 100 uM measured after 60 mins by scintillation counting method relative to control; format: cell-based
# D(1A) dopamine receptor (Homo sapiens), sequence (P21728 whole entry): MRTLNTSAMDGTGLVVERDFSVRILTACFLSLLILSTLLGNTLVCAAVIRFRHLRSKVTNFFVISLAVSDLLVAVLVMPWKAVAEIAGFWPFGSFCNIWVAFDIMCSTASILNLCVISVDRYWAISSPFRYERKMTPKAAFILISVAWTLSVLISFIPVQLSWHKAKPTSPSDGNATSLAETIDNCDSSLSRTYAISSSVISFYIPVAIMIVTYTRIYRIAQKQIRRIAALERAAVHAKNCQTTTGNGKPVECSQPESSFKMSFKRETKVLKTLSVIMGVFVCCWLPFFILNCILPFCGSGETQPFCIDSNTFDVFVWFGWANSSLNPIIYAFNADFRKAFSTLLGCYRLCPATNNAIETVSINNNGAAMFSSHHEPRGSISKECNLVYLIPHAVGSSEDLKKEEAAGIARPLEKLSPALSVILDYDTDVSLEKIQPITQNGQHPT
# [10] = target: D(1B) dopamine receptor (Homo sapiens) (UniProt P21918); assay: Displacement of [3H]SCH 23390 from human recombinant D5 receptor expressed in GH4 cells at 100 uM measured after 60 mins by scintillation counting method relative to control; format: cell-based
# D(1B) dopamine receptor (Homo sapiens), sequence (P21918 whole entry): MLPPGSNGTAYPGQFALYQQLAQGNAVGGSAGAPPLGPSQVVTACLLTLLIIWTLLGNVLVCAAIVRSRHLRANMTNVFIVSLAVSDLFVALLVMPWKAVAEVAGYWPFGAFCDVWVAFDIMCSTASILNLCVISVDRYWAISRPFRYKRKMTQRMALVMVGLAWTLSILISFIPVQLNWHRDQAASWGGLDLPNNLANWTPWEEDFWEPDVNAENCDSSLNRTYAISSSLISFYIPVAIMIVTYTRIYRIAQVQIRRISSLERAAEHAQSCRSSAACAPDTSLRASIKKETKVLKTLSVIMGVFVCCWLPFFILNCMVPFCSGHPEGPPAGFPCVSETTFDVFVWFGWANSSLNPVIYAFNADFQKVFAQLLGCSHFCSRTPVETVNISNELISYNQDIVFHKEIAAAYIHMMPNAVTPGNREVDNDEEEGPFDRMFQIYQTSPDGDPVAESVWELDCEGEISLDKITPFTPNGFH
# [11] = target: T1, Galanin receptor type 1 (Homo sapiens) (UniProt P47211); assay: Displacement of [125I]galanin from human recombinant GAL1 receptor expressed in HEK293 cells at 100 uM measured after 60 mins by scintillation counting method relative to control; format: cell-based
# T1 sequence (whole entry): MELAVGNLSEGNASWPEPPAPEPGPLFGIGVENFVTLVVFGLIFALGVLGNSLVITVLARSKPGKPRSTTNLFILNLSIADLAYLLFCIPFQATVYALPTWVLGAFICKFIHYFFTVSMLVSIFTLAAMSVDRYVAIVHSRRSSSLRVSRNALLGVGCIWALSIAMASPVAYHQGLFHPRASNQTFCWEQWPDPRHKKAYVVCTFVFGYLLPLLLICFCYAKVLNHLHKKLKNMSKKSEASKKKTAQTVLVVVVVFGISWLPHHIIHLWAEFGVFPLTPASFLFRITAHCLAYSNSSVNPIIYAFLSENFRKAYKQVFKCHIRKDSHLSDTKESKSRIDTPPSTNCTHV
# [12] = target: T2, Muscarinic acetylcholine receptor M5 (Homo sapiens) (UniProt P08912); assay: Displacement of [3H]4-DAMP from human recombinant M5 receptor expressed in CHO cells at 100 uM measured after 60 mins by scintillation counting method relative to control; format: cell-based
# T2 sequence (whole entry): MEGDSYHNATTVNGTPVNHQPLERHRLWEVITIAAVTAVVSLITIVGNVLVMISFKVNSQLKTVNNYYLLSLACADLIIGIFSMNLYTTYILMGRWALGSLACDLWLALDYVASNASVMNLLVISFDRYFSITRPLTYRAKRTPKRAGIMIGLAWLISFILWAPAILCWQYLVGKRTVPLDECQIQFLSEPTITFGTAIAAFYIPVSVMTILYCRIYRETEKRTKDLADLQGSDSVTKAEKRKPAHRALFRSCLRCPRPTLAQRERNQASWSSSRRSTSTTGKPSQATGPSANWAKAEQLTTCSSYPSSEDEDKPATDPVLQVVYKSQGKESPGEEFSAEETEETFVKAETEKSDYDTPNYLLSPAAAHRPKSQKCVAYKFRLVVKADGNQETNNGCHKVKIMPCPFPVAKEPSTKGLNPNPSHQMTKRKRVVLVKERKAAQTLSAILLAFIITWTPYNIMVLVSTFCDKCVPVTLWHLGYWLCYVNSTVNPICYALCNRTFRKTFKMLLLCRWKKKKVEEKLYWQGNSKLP
# [13] = target: Kappa-type opioid receptor (Rattus norvegicus) (UniProt P34975); assay: Displacement of [3H]U 69593 from rat recombinant kappa-opioid receptor expressed in CHO cells at 100 uM measured after 60 mins by scintillation counting method relative to control; format: cell-based
# Kappa-type opioid receptor (Rattus norvegicus), sequence (P34975 whole entry): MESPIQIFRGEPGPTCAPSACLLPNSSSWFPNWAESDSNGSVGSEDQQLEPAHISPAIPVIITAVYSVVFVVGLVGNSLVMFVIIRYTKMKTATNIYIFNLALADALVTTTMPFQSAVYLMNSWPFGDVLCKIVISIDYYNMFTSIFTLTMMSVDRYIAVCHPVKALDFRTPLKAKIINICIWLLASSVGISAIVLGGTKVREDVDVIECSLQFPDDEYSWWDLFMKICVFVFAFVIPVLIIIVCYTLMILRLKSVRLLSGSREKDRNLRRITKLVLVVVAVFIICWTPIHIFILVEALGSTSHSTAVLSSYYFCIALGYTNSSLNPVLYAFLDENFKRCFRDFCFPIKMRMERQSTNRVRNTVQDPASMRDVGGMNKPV
# [14] = target: Mu-type opioid receptor (Homo sapiens) (UniProt P35372); assay: Displacement of [3H]DAMGO from human recombinant mu-opioid receptor expressed in HEK293 cells at 100 uM measured after 120 mins by scintillation counting method relative to control; format: cell-based
# Mu-type opioid receptor (Homo sapiens), sequence (P35372 whole entry): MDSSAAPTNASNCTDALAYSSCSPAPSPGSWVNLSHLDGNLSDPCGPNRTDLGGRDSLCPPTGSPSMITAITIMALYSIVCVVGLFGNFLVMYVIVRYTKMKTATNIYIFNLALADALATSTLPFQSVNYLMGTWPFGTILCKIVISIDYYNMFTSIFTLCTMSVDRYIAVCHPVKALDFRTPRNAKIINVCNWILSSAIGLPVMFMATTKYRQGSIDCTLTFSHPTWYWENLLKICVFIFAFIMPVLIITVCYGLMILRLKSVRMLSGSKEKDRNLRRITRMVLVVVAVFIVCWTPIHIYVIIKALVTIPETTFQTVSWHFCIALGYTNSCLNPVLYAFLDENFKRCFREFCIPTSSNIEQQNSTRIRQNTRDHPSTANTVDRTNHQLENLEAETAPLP
# [15] = target: Nociceptin receptor (Homo sapiens) (UniProt P41146); assay: Displacement of [3H]nociceptin from human recombinant NOP receptor expressed in HEK293 cells at 100 uM measured after 60 mins by scintillation counting method relative to control; format: cell-based
# Nociceptin receptor (Homo sapiens), sequence (P41146 whole entry): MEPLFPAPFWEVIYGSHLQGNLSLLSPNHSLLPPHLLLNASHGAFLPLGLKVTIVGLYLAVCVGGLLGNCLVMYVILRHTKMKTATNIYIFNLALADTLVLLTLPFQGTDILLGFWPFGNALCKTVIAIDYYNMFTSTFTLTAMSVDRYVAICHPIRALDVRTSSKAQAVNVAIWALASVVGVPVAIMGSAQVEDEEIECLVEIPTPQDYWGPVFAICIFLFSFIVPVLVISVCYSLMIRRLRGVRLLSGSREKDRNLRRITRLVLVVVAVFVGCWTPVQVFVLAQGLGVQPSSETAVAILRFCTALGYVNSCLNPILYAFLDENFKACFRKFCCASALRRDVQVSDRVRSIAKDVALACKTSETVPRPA
# [16] = target: T3, Peroxisome proliferator-activated receptor gamma (Homo sapiens) (UniProt P37231); assay: Displacement of [3H]rosiglitazone from human recombinant PPAR-gamma receptor expressed in Escherichia coli at 100 uM measured after 120 mins by scintillation counting method relative to control
# T3 sequence (whole entry): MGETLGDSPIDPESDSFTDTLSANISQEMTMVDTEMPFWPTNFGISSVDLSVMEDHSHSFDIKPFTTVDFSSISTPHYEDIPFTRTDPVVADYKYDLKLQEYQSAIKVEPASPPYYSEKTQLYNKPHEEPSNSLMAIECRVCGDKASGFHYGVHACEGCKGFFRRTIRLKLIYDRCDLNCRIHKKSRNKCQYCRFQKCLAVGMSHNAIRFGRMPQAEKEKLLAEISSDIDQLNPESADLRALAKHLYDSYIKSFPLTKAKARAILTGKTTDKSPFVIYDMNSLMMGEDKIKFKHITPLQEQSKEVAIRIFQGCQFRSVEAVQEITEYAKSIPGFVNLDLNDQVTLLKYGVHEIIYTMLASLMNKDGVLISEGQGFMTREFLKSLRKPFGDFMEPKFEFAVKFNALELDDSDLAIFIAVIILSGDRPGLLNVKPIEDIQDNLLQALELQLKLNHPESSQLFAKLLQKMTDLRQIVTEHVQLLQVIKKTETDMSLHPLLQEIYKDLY
# [17] = target: Prostaglandin E2 receptor EP4 subtype (Homo sapiens) (UniProt P35408); assay: Displacement of [3H]PGE2 from human recombinant EP4 receptor expressed in HEK293 cells at 100 uM measured after 120 mins by scintillation counting method relative to control; format: cell-based
# Prostaglandin E2 receptor EP4 subtype (Homo sapiens), sequence (P35408 whole entry): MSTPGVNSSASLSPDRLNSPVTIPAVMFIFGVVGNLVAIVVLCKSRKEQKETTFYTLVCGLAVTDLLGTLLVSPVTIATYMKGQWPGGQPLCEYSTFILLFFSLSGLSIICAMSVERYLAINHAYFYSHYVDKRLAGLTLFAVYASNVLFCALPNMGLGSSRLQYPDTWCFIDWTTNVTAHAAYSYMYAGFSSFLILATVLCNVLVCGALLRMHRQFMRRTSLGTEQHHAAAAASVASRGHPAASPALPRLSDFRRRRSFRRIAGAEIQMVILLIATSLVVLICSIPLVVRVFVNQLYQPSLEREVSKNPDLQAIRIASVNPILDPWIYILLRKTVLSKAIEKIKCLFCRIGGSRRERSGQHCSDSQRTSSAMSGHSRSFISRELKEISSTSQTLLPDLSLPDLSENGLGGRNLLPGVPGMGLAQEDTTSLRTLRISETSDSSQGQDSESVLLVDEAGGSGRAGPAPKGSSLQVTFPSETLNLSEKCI
# [18] = target: 5-hydroxytryptamine receptor 6 (Homo sapiens) (UniProt P50406); assay: Displacement of [3H]LSD from human recombinant 5HT6 receptor expressed in CHO cells at 100 uM measured after 120 mins by scintillation counting method relative to control; format: cell-based
# 5-hydroxytryptamine receptor 6 (Homo sapiens), sequence (P50406 whole entry): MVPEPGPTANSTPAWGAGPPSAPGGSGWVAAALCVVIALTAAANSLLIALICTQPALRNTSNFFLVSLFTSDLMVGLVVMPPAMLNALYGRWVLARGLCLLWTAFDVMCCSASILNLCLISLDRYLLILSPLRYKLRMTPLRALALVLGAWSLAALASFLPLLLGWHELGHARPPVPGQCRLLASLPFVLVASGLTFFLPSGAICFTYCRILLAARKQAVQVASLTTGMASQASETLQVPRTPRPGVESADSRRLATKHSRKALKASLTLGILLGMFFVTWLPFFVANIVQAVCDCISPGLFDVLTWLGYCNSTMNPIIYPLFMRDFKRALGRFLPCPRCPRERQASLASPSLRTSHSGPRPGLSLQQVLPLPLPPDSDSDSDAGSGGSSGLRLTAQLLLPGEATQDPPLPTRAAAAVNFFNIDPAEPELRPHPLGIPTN
# [19] = target: Sodium-dependent noradrenaline transporter (Homo sapiens) (UniProt P23975); assay: Displacement of [3H]nisoxetine from human recombinant norepinephrine transporter expressed in CHO cells at 100 uM measured after 120 mins by scintillation counting method relative to control; format: cell-based
# Sodium-dependent noradrenaline transporter (Homo sapiens), sequence (P23975 whole entry): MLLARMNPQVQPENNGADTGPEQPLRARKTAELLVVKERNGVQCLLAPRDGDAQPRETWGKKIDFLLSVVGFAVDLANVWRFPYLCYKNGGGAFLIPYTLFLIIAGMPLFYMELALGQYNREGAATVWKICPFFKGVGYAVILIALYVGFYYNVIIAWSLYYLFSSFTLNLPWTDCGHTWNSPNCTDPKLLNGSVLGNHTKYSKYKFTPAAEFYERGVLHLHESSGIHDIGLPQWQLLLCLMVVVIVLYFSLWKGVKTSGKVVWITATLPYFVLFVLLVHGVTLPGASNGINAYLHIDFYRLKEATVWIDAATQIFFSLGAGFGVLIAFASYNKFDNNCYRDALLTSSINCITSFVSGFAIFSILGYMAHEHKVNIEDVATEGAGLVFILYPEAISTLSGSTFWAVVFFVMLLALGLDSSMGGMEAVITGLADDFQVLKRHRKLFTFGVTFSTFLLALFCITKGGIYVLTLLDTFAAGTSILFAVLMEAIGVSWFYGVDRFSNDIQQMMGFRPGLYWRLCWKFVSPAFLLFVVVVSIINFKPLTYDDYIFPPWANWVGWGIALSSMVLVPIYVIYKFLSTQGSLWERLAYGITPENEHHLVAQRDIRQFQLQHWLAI
SMILES,Activity (Mus musculus [1]),Activity (Mus musculus [2]),Activity (Rattus norvegicus [3]),Activity (Rattus norvegicus [4]),Time (Mus musculus [5]) [h],ED50 (Mus musculus [6]) [mg/kg],selectivity ratio [7],Time (Rattus norvegicus [8]) [h],inhibition [9] [%],inhibition [10] [%],inhibition [11] [%],inhibition [12] [%],inhibition [13] [%],inhibition [14] [%],inhibition [15] [%],inhibition [16] [%],inhibition [17] [%],inhibition [18] [%],inhibition [19] [%]
Cc1ccccc1/C=C/C(=O)N[C@@H](C)CO,Active,Non-Toxic,Non-Toxic,Non-Toxic,0.25,42.3,6.51,1,7.2,8,1.4,-7.5,14.8,0.4,2.2,3,16.7,7,30.4
CC(O)CNC(=O)/C=C/c1ccc(Cl)cc1 (stereo not given),Active,Toxic,Non-Toxic,Non-Toxic,0.5,51.3,> 5.41,0.5,14.9,13,6.6,-5.9,31.6,11.3,1.7,2.3,23.6,4.6,48.1
CCC(CO)NC(=O)/C=C/c1ccc(Cl)cc1 (stereo not given),Active,–,Non-Toxic,Non-Toxic,0.25,92.9,–,0.5,18.5,12.3,-1.2,-9.2,41.9,23.3,-4.4,26.7,29.7,3.7,61.7
